Reference: article PMC11009276, “Design, synthesis, biological assessment and molecular modeling studies of novel imidazothiazole-thiazolidinone hybrids as potential anticancer and anti-inflammatory agents” (Scientific Reports, 2024)
Where two headings read alike, the source gives them in different places.

Assays:
A549 cells [1] = test: DAPI nuclear staining; format: cell-based, human; details: IC50 dose, 48 h
Method: A549 cells were treated with compound 4a, 4b, 4c and morphological changes were observed after nuclear staining with 4′,6‐diamidino‐2‐phenylindole (DAPI).
Cellular nuclear morphology was evaluated by fluorescence microscopy following DAPI staining. […] After incubation, the cells were again gently washed with PBS and the coverslips were mounted on sterile slides using a DPX mounting medium. The prepared slides were observed under a fluorescence microscope (Nikon) having a blue or cyan filter at × 40 magnification.

[2] = system: HCT116 human colorectal cancer cell line; test: MTT cytotoxicity assay, HCT116; details: HCT-116, 72 h, read-out: IC50 (µM) (Mean ± SD) HCT116
Method: (§1) All the synthesized imidazothiazole derivatives linked with thiazolidinone moiety (4a-g and 5a-d, Fig. 4) were evaluated for their in- vitro anticancer activities against three selected human cancer cell lines namely non-small lung (A549), breast (MCF7) and colorectal (HCT116) and one normal human embryonic kidney cell line (HEK293) using the 3‐(4,5‐Dimethylthiazol‐2‐yl)-2,5‐Diphenyltetrazolium Bromide (MTT) assay method. […] Compounds were tested against selected cancer cell lines namely A549 (Lung), MCF-7(Breast) HCT116 (Colon), normal human embryonic kidney cell line (HEK293) and procured from National Centre for Cell Science Complex (NCCS) Pune University, India. Into a 96 well plate, cells were seeded into each well (3 × 10^3 cells/ per well), the plate were incubated for 24 h, after that the culture medium was discarded and replaced with fresh medium along with our newly synthesized test compounds in different concentration (10, 20, 40 and 80 µM) followed by incubation for 72 h. […] Finally, each well is treated with DMSO (100 µL) and swirled to dissolve the dark crystals of formazan. ELISA reader was used to measure the absorbance at 570 nm. The experiment was repeated three times; Graph pad prism and excel are used to calculate the IC50 values[51].

[3] = system: carrageenan-induced rat hind paw edema; test: Carrageenan-induced rat paw edema inhibition assay; format: in vivo; details: after 4 h; for % inhibition (paw edema) / Increase in Paw volume SEM: oral 0.0314 mmol/kg; for Increase in Paw volume SEM: n = 6; for Activity relative to standard drug: relative to diclofenac sodium
Method: The anti-inflammatory efficacy of the newly synthesised compounds was assessed using a carrageenan-induced rat hind paw edema technique The animals were divided into groups of six at random, fasted for 24 h before to the experiment, and given free access to water. 0.5% CMC solution was given to the control group only. […] One hour after the administration of the test compounds and the reference drug, 0.1 mL of a 1% carrageenan solution in saline was subcutaneously injected into the subplantar area of the right hind paw of each rat. The right hind paw volume was measured using a Digital Plethysmometer PLM-01 Plus (Orchid Scientifics and Innovatives India Pvt. Ltd., Mumbai, India) at 3 and 4 h after carrageenan therapy. The following calculation was used to compute the percent edema inhibition from the mean effect in the treated and control animals: Percent edema inhibition=Vc-Vt/Vc×100 where Vc denotes the mean increase in paw volume in the control group of rats and Vt denotes the mean increase in paw volume in rats treated with test chemicals. After a 15-day washout period, the same group of rats utilised for the anti-inflammatory activity were employed for the ulcerogenic activity.

EGFR kinase = EGFR kinase (Homo sapiens, UniProt P00533); test: In vitro EGFR kinase inhibitory assay (ELISA, phospho-EGFR in A549 cell lysates)
Chain of EGFR kinase (P00533 25-1210): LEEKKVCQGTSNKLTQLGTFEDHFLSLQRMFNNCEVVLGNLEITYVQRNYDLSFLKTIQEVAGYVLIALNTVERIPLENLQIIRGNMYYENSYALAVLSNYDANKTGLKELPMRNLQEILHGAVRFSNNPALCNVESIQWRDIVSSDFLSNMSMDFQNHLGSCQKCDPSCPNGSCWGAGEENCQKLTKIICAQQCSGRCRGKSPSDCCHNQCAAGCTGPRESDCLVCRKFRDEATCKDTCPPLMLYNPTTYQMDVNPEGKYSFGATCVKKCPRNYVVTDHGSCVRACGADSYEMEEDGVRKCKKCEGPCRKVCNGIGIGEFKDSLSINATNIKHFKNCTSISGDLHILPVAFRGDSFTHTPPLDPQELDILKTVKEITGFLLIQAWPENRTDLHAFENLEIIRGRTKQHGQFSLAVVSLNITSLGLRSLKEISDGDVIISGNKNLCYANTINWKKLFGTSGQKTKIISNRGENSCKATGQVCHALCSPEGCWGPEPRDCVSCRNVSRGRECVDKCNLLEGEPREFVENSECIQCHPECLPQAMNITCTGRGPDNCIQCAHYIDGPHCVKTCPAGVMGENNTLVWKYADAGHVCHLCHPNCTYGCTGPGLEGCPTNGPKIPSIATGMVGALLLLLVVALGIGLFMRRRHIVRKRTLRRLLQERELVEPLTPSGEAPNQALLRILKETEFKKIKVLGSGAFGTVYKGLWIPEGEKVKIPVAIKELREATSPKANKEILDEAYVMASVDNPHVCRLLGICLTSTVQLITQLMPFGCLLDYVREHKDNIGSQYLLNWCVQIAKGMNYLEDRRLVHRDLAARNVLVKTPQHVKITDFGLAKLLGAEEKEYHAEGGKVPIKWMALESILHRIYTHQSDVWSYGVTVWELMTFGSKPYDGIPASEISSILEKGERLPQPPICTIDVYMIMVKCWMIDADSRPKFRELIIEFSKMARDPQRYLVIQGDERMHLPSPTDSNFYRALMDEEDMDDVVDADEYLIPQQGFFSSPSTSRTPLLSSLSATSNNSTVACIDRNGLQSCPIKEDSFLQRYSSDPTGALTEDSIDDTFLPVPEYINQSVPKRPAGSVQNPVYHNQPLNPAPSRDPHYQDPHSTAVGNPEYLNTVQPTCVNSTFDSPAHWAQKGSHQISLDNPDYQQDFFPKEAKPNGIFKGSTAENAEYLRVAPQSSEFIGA
Method: For all the synthesized compounds, the overall methodology of a spectrophotometric assay for the inhibition of EGFR tyrosine kinase activity was evaluated in human A549 cells, which expressed high levels of EGFR protein. […] Cells were then washed with cold PBS, lysed in 0.2 ml/well of HNTG buffer (50 mM HEPES [(4‐(2‐hydroxyethyl)‐piperazineethanesulfonic acid; pH 7.5], 150 mM NaCl, 1.5 mM MgCl, 10% glycerol, 1% Triton X‐100, 0.5 mM sodium fluoride, 2 g/ml aprotinin, 2 g/ml pepstatin A, 1 mM sodium orthovanadate, 2 g/ml leupeptin, 1 mM phenyl methyl sulfonyl fluoride) for 10 min, and the lysates were collected as the supernatant fraction after a 12‐min centrifugation at 15,000 g. The specific EGFR concentration was measured by ELISA assay. Briefly, the wells of ELISA plates were coated with supernatant fraction and incubated at 4 °C overnight After washing three times with buffer (20 mM PBS, pH 7.2 containing 0.05% Tween‐20), the wells were blocked with 1% BSA for 2–3 h at room temperature. Further, the plate was washed and then mouse serum at 1,000‐fold dilution was added, followed by washing and incubation with phospho‐EGFR antibody (Invitrogen) at 4 °C overnight. The wells were washed and incubated with substrate solution (o‐phenylenediamine dihydrochloride), for 30 min, and the absorbance read on an ELISA plate reader at 490 nm[52]. %Inhibition=mean OD of untreated group-mean OD of treated group/mean OD of untreated group)×100.

[4] = target: Bovine serum albumin (BSA) (Bos taurus, UniProt P02769); test: BSA (protein albumin) denaturation inhibition assay; details: for BSA denaturation inhibition assay Mean absorbance ± SEM: 100 μg/mL, 660 nm
Chain of Bovine serum albumin (BSA) (P02769 25-607): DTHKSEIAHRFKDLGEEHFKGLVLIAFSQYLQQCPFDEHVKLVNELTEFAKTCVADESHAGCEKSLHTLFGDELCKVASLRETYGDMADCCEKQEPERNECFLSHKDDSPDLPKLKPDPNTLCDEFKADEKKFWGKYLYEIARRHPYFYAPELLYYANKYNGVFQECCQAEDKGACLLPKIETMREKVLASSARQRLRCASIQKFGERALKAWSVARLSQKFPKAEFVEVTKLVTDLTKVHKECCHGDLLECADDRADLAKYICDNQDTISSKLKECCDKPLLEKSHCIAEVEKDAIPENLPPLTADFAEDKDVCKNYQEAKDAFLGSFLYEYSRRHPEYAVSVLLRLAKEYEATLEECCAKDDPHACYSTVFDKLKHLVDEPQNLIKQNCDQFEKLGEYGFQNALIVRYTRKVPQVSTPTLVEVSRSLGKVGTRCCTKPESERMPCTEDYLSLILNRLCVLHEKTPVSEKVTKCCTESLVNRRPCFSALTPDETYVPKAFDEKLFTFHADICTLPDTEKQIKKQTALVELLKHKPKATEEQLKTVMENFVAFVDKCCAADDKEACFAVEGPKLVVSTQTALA
Method: All the synthesized compounds were evaluated for anti-inflammatory activity by the inhibition of the albumin denaturation technique. […] All the test solutions (1 mL, 100 μg/mL) were then mixed with 1 mL of albumin solution (1%) and phosphate buffer saline and then incubated for around 15 min at 27 ± 1 °C. Further, the denaturation of protein was induced by keeping the reaction mixture on the water bath for 10 min and maintaining the temperature at 60 °C. Once the solution gets cooled, the turbidity was measured using UV–Visible spectrophotometer at 660 nm.

[5] = system: gastric mucosa tissue of rats; test: Lipid peroxidation in gastric mucosa; format: in vivo, rat; details: oral 0.0942 mmol/kg
Method: The compounds screened for ulcerogenic potential were also analysed for lipid peroxidation. Lipid peroxidation is measured as nmolMDA/100 mg of gastric mucosa tissue. […] Thus, it was concluded that protection of gastric mucosa might be related to the inhibition of lipid peroxidation.
Lipid peroxidation in the gastric mucosa was determined using the reported method by Ohkawa H. et al.[61]. The gastric mucosa of the glandular area was scraped off using glass slides after the stomach had been examined for ulcers. Gastric mucosa was weighed (100 mg) and homogenised in 1.8 cm^3 of ice-cold solution of KCl (1.15%). The homogenate is further added with 0.2 cm^3 of 8.1% sodium dodecyl sulphate (SDS), 1.5 cm^3 of acetate buffer, and 1.5 cm^3 of 0.8% thiobarbituric acid. After adding all buffers, the mixture was kept for incubation for 60 min over water bath, maintaining the temperature of the water bath at 95 °C. Later, the mixture was allowed to cool and then extracted with a freshly prepared mixture of n-butanol and pyridine (15:1 v/v), the organic layer obtained was centrifuged at 3000 rpm for about 10 min. The organic layer was separated out and visualised on UV–visible spectrophotometer. Concentration was measured using the following formula: Concentration=Absorbance×volume×109÷1.56×10^5×1000
Results obtained were expressed as nmol MDA/100 mg tissue and extinction coefficient (1.56 × 10^5) cm^-1 M^-1.

A549 cells [6] = test: Wound healing (migration) assay; format: cell-based, human; details: 30 µM, 0 and 24 h, vs control
Method: Migration of cells is directly associated with tumor progression and metastasis of cancerous cells. […] An artificial scratch or wound was created on the monolayer of A549 cells using a 200µL sterile pipette tip. […] The images of cells to fill up the artificial scratch or wounds were photographed at 0 and 24 h after the treatment and the responses were visualized using phase contrast microscopy.
Wound healing was performed with A549 cells. On six-well plates, cells were seeded at a density of 5 × 10^5 cells per well and cultured as a confluent monolayer for 24 h. A […] pipette sterile tip was used to make an artificial scratch or wound on the monolayer of A549 cells after a 24-h period, and well plates were then washed with PBS to eliminate any non-adherent cells. The therapy was then administered at the appropriate concentrations of chemicals 4c and 4b. A Nikon phase contrast microscope was used to take pictures of the movement of cells over the scratched region at 0 and 24 h in two or three randomly chosen fields.

[7] = system: MCF7 human breast cancer cell line; test: MTT cytotoxicity assay, MCF7; details: MCF7, 72 h, read-out: IC50 (µM) (Mean ± SD) MCF7
Method: as §1

[8] = system: A549 (Lung) cancer cell line; test: MTT cytotoxicity assay, A549; details: Homo sapiens, A549, 72 h, read-out: IC50 (µM) (Mean ± SD) A549
Method: as §1

[9] = read-out: BSA denaturation inhibition assay % inhibition of denaturation

Row | SMILES | Nuclear morphological change (DAPI) (A549 cells [1]) | IC50 [2] | % inhibition (paw edema) [3] | Increase in Paw volume SEM [3] | Activity relative to standard drug [3] | IC50 (EGFR kinase) | BSA denaturation inhibition assay Mean absorbance ± SEM [4] | inhibition at 100 µg/mL [4, 9] | Lipid peroxidation [5] | Migration of A549 cells (wound healing) (A549 cells [6]) | IC50 [7] | IC50 [8] | inhibition at 100 µg/mL ([4]; read-out: BSA denaturation inhibition assay % inhibition of denaturation, 100 μg/mL)
1 | CC1SC(c2c(-c3ccccc3)nc3sccn23)N(c2ccc(Br)cc2)C1=O (centres unmarked) [Compound 4c, 3-(4-Bromophenyl)-5-methyl-2-(6-phenylimidazo[2,1-b]thiazol-5-yl) thiazolidin-4-one] | chromatin condensation and nuclear fragmentation and margination of nucleus | 23.2 ± 1.89 µM | 80.17% | 0.136 ± 0.014 | 99.82 | 18.4 ± 1.25 µM | 0.332 ± 0.006 | 83.6% | 5.37 ± 0.060 Nmol MDA/100 mg tissue | significant suppression in the migration of A549 cells | 18.7 ± 0.88 µM | 10.7 ± 0.4 µM | 
2 | CC1SC(c2c(-c3ccccc3)nc3sccn23)N(c2ccc(Cl)cc2)C1=O (centres unmarked) [Compound 4b, 3-(4-Chlorophenyl)-5-methyl-2-(6-phenylimidazo[2,1-b]thiazol-5-yl) thiazolidin-4-one] | chromatin condensation and nuclear fragmentation and margination of nucleus | 45 ± 1.02 µM | 81.34% | 0.128 ± 0.018 | 101.27 | 24.3 ± 1.73 µM | 0.329 ± 0.001 | 84.9% | 4.12 ± 0.159 Nmol MDA/100 mg tissue | significant suppression in the migration of A549 cells | 29.2 ± 7.1 µM | 21.1 ± 1.04 µM | 
3 | CC1SC(c2c(-c3ccccc3)nc3sccn23)N(c2ccc(F)cc2)C1=O (centres unmarked) [Compound 4a, 3-(4-Fluorophenyl)-5-methyl-2-(6-phenylimidazo[2,1-b]thiazol-5-yl) thiazolidin-4-one] | chromatin condensation and nuclear fragmentation and margination of nucleus | 23.7 ± 0.85 µM | 79.45% | 0.141 ± 0.025 | 98.91 | 28.6 ± 1.96 µM |  |  | 5.98 ± 0.114 Nmol MDA/100 mg tissue | significant suppression in the migration of A549 cells | 22.8 ± 5.5 µM | 22.5 ± 2.04 µM | 82.1%
